“And” between values parts separate entries of the source, which are not always exact repeats. Equal values may be shown once. Inconclusive results are not listed.
Tested on: CD8F1 mice, subcutaneous mammary adenocarcinoma, T/C%
Experiment: NCI In Vivo Anticancer Drug Screen. Data for tumor model Mammary Adenocarcinoma CD8F1 (subcutaneous) in CD8F1
Settings: higher = larger tumour
How it was run: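 Transplantable tumors were established in mice, animals were dosed with compound or vehicle, and survival or tumor size was then measured in both groups. The treated result was divided by the control result.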

[1] = endpoint: median tumor weight (est.), dose: 12.5 mg/kg/injection, schedule: Q07DX005 (ip), vehicle: suspension in saline
[2] = endpoint: median tumor weight (est.), dose: 25.0 mg/kg/injection, schedule: Q07DX005 (ip), vehicle: suspension in saline
[3] = endpoint: median tumor weight (est.), dose: 50.0 mg/kg/injection, schedule: Q07DX005 (ip), vehicle: suspension in saline
[4] = endpoint: median tumor weight (est.), dose: 100.0 mg/kg/injection, schedule: Q07DX005 (ip), vehicle: suspension in saline
[5] = endpoint: median tumor weight (est.), dose: 200.0 mg/kg/injection, schedule: Q07DX005 (ip), vehicle: suspension in saline
[6] = endpoint: median tumor weight change, dose: 62.5 mg/kg/injection, schedule: Q01DX001 (ip), vehicle: saline with Tween-80
[7] = endpoint: median tumor weight change, dose: 125.0 mg/kg/injection, schedule: Q01DX001 (ip), vehicle: saline with Tween-80
[8] = endpoint: median tumor weight change, dose: 250.0 mg/kg/injection, schedule: Q01DX001 (ip), vehicle: saline with Tween-80
[9] = endpoint: median tumor weight change, dose: 500.0 mg/kg/injection, schedule: Q01DX001 (ip), vehicle: saline with Tween-80
[10] = endpoint: median tumor weight change, dose: 1000.0 mg/kg/injection, schedule: Q01DX001 (ip), vehicle: saline with Tween-80
[11] = endpoint: median tumor weight (est.), dose: 25.0 mg/kg/injection, schedule: Q07DX005 (ip), vehicle: saline
[12] = endpoint: median tumor weight (est.), dose: 100.0 mg/kg/injection, schedule: Q07DX005 (ip), vehicle: Klucel (hydroxypropylcellulose) (HPC)
[13] = endpoint: median tumor weight (est.), dose: 100.0 mg/kg/injection, schedule: Q07DX005 (ip), vehicle: saline
[14] = endpoint: median tumor weight (est.), dose: 200.0 mg/kg/injection, schedule: Q07DX005 (ip), vehicle: Klucel (hydroxypropylcellulose) (HPC)
[15] = endpoint: median tumor weight (est.), dose: 400.0 mg/kg/injection, schedule: Q07DX005 (ip), vehicle: Klucel (hydroxypropylcellulose) (HPC)
[16] = endpoint: median tumor weight (est.), dose: 400.0 mg/kg/injection, schedule: Q07DX005 (ip), vehicle: saline
[17] = endpoint: median tumor weight (est.), dose: 12.5 mg/kg/injection, schedule: Q07DX005 (ip), vehicle: saline with Tween-80
[18] = endpoint: median tumor weight (est.), dose: 25.0 mg/kg/injection, schedule: Q07DX005 (ip), vehicle: saline with Tween-80
[19] = endpoint: median tumor weight (est.), dose: 1.0 mg/kg/injection, schedule: Q07DX005 (ip), vehicle: saline
[20] = endpoint: median tumor weight (est.), dose: 2.0 mg/kg/injection, schedule: Q07DX005 (ip), vehicle: saline
[21] = endpoint: median tumor weight (est.), dose: 4.0 mg/kg/injection, schedule: Q07DX005 (ip), vehicle: saline

SMILES: Cc1cc2nc3[nH]c4ccccc4c3nc2cc1C
- T/C [1]: 88 % of control
- T/C [2]: 52 % of control
- T/C [3]: 73 % of control
- T/C [4]: 81 % of control
- T/C [5]: 88 % of control
- T/C (endpoint: median tumor weight (est.), dose: 400.0 mg/kg/injection, schedule: Q07DX005 (ip), vehicle: suspension in saline): 100 % of control

SMILES: COc1ccc2c(ccc3oc([N+](=O)[O-])cc32)c1
- T/C [6]: 77 % of control
- T/C [7]: 63 % of control
- T/C [8]: 76 % of control
- T/C [9]: 86 % of control
- T/C [10]: 56 % of control

SMILES: Nc1nc(F)nc2c1ncn2C1OC(COP(=O)(O)O)C(O)C1O (configuration not stated)
- T/C [1]: 69 % of control
- T/C (endpoint: median tumor weight (est.), dose: 25.0 mg/kg/injection, schedule: Q07DX005 (ip), vehicle: Klucel (hydroxypropylcellulose) (HPC)): 49 % of control
- T/C [11]: 84 % of control
- T/C [2]: 101 % of control
- T/C (endpoint: median tumor weight (est.), dose: 50.0 mg/kg/injection, schedule: Q07DX005 (ip), vehicle: Klucel (hydroxypropylcellulose) (HPC)): 77 % of control
- T/C [3]: 76 % of control
- T/C [12]: 101 % of control
- T/C [13]: 75 % of control and 98 % of control
- T/C [4]: 66 % of control
- T/C [14]: 50 % of control
- T/C [5]: 50 % of control
- T/C [15]: 34 % of control
- T/C [16]: 20 % of control

SMILES: NC(=O)c1ncn2c(=O)n(CCCl)nnc12
- T/C (endpoint: median tumor weight change, dose: 6.25 mg/kg/injection, schedule: Q01DX001 (ip), vehicle: suspension in saline): 69 % of control
- T/C (endpoint: median tumor weight change, dose: 12.5 mg/kg/injection, schedule: Q01DX001 (ip), vehicle: suspension in saline): 76 % of control
- T/C (endpoint: median tumor weight change, dose: 25.0 mg/kg/injection, schedule: Q01DX001 (ip), vehicle: suspension in saline): 45 % of control
- T/C (endpoint: median tumor weight change, dose: 50.0 mg/kg/injection, schedule: Q01DX001 (ip), vehicle: suspension in saline): 41 % of control and 46 % of control

SMILES: CC(C)C(N)C(=O)Nc1nncs1 (configuration not stated)
- T/C (endpoint: median tumor weight change, dose: 125.0 mg/kg/injection, schedule: Q01DX001 (ip), vehicle: saline): 119 % of control
- T/C (endpoint: median tumor weight change, dose: 250.0 mg/kg/injection, schedule: Q01DX001 (ip), vehicle: saline): 171 % of control
- T/C (endpoint: median tumor weight change, dose: 500.0 mg/kg/injection, schedule: Q01DX001 (ip), vehicle: saline): 82 % of control
- T/C (endpoint: median tumor weight change, dose: 1000.0 mg/kg/injection, schedule: Q01DX001 (ip), vehicle: saline): 81 % of control

SMILES: C[C@]12CC[C@H](O)CC1=CC[C@@H]1[C@@H]2CC[C@]2(C)C(=O)CC[C@@H]12
- T/C [6]: 115 % of control
- T/C [8]: 104 % of control
- T/C [9]: 90 % of control
- T/C [10]: 70 % of control

SMILES: COc1ccc(S(=O)(=O)N=N/C=C2\C=CC=CN2O)cc1OC
- T/C (endpoint: median tumor weight change, dose: 31.25 mg/kg/injection, schedule: Q01DX001 (ip), vehicle: saline with Tween-80): 60 % of control
- T/C [6]: 87 % of control
- T/C [8]: 106 % of control

SMILES: NNC(=S)N/N=C/c1ccccn1
- T/C (endpoint: median tumor weight (est.), dose: 6.25 mg/kg/injection, schedule: Q07DX005 (ip), vehicle: saline with Tween-80): 112 % of control
- T/C [17]: 84 % of control
- T/C [18]: 81 % of control
- T/C (endpoint: median tumor weight (est.), dose: 50.0 mg/kg/injection, schedule: Q07DX005 (ip), vehicle: saline with Tween-80): 59 % of control

SMILES: CCC(C)C(=O)OC1C(=O)OC2CC3C(C)=CC(=O)C(O)C3(C)C3C4(O)OCC23C1C(C)C4O (configuration not stated)
- T/C (endpoint: median tumor weight (est.), dose: 0.5 mg/kg/injection, schedule: Q07DX005 (ip), vehicle: saline): 70 % of control
- T/C (endpoint: median tumor weight (est.), dose: 1.0 mg/kg/injection, schedule: Q07DX005 (ip), vehicle: saline with Tween-80): 237 % of control
- T/C [19]: 95 % of control
- T/C [20]: 70 % of control
- T/C (endpoint: median tumor weight (est.), dose: 4.0 mg/kg/injection, schedule: Q07DX005 (ip), vehicle: saline with Tween-80): 165 % of control
- T/C [21]: 74 % of control

SMILES: O=C(NO)c1ccccc1
- T/C [2]: 46 % of control
- T/C [3]: 109 % of control
- T/C [4]: 293 % of control

SMILES: Cc1ccccc1-[n+]1noc(N)n1
- T/C (endpoint: median tumor weight change, dose: 31.25 mg/kg/injection, schedule: Q01DX001 (ip), vehicle: water): 72 % of control
- T/C (endpoint: median tumor weight change, dose: 62.5 mg/kg/injection, schedule: Q01DX001 (ip), vehicle: water): 87 % of control
- T/C (endpoint: median tumor weight change, dose: 125.0 mg/kg/injection, schedule: Q01DX001 (ip), vehicle: water): 29 % of control

SMILES: C/C=C(\Cl)C1=CC(=O)C23CC2C2(C)COC1(O)C3(O)O2 (configuration not stated)
- T/C (endpoint: median tumor weight (est.), dose: 6.0 mg/kg/injection, schedule: Q07DX005 (ip), vehicle: saline with Tween-80): 90 % of control

SMILES: Cc1ccc(S(=O)(=O)NC(=S)S)cc1
- T/C [17]: 110 % of control
- T/C [18]: 94 % of control
- T/C (endpoint: median tumor weight (est.), dose: 100.0 mg/kg/injection, schedule: Q07DX005 (ip), vehicle: saline with Tween-80): 91 % of control
- T/C (endpoint: median tumor weight (est.), dose: 200.0 mg/kg/injection, schedule: Q07DX005 (ip), vehicle: saline with Tween-80): 95 % of control
- T/C (endpoint: median tumor weight (est.), dose: 400.0 mg/kg/injection, schedule: Q07DX005 (ip), vehicle: saline with Tween-80): 106 % of control

SMILES: Cc1c(N)nc([C@H](CC(N)=O)NC[C@H](N)C(N)=O)nc1C(=O)N[C@H](C(=O)N[C@H](C)[C@@H](O)CC(=O)N[C@H](C(=O)NC(O[C@@H]1O[C@@H](C)[C@@H](N)[C@@H](O)[C@H]1O)C(O)c1nc(-c2nc(C(=O)NCCCCN)cs2)cs1)[C@@H](C)O)[C@@H](O[C@@H]1O[C@@H](CO)[C@@H](O)[C@H](O)[C@@H]1O[C@H]1O[C@H](CO)[C@@H](O)[C@H](OC(N)=O)[C@@H]1O)c1c[nH]cn1 (some centres not stated)
- T/C [19]: 55 % of control
- T/C [20]: 14 % of control and 26 % of control
- T/C [21]: 18 % of control and 19 % of control
- T/C (endpoint: median tumor weight (est.), dose: 8.0 mg/kg/injection, schedule: Q07DX005 (ip), vehicle: saline): 5 % of control
- T/C (endpoint: median tumor weight (est.), dose: 16.0 mg/kg/injection, schedule: Q07DX005 (ip), vehicle: saline): 5 % of control
- T/C (endpoint: median tumor weight (est.), dose: 32.0 mg/kg/injection, schedule: Q07DX005 (ip), vehicle: saline): 5 % of control
- T/C (endpoint: median tumor weight change, dose: 4.0 mg/kg/injection, schedule: Q01DX001 (ip), vehicle: saline): 98 % of control
- T/C (endpoint: median tumor weight change, dose: 8.0 mg/kg/injection, schedule: Q01DX001 (ip), vehicle: saline): 55 % of control
- T/C (endpoint: median tumor weight change, dose: 16.0 mg/kg/injection, schedule: Q01DX001 (ip), vehicle: saline): 104 % of control
- T/C (endpoint: median tumor weight change, dose: 32.0 mg/kg/injection, schedule: Q01DX001 (ip), vehicle: saline): 52 % of control

SMILES: C[C@@H](CN1CC(=O)NC(=O)C1)N1CC(=O)NC(=O)C1
- T/C [11]: 75 % of control
- T/C (endpoint: median tumor weight (est.), dose: 50.0 mg/kg/injection, schedule: Q07DX005 (ip), vehicle: saline): 39 % of control
- T/C [12]: 52 % of control
- T/C [13]: 85 % of control
- T/C [14]: 107 % of control
- T/C (endpoint: median tumor weight (est.), dose: 200.0 mg/kg/injection, schedule: Q07DX005 (ip), vehicle: saline): 46 % of control
- T/C [15]: 37 % of control
- T/C [16]: 45 % of control
- T/C (endpoint: median tumor weight (est.), dose: 800.0 mg/kg/injection, schedule: Q07DX005 (ip), vehicle: Klucel (hydroxypropylcellulose) (HPC)): 10 % of control
- T/C (endpoint: median tumor weight (est.), dose: 800.0 mg/kg/injection, schedule: Q07DX005 (ip), vehicle: saline): 13 % of control

SMILES: C[n+]1ccc2cc(N)c3c4ccccc4sc3c2c1
- T/C (endpoint: median tumor weight (est.), dose: 1.56 mg/kg/injection, schedule: Q07DX004 (ip), vehicle: saline with Tween-80): 83 % of control
- T/C (endpoint: median tumor weight (est.), dose: 3.12 mg/kg/injection, schedule: Q07DX004 (ip), vehicle: saline with Tween-80): 121 % of control
- T/C (endpoint: median tumor weight (est.), dose: 6.25 mg/kg/injection, schedule: Q07DX004 (ip), vehicle: saline with Tween-80): 65 % of control
- T/C (endpoint: median tumor weight (est.), dose: 12.5 mg/kg/injection, schedule: Q07DX004 (ip), vehicle: saline with Tween-80): 105 % of control
- T/C (endpoint: median tumor weight (est.), dose: 25.0 mg/kg/injection, schedule: Q07DX004 (ip), vehicle: saline with Tween-80): 110 % of control

SMILES: CC(=O)N(C)C
- T/C (endpoint: median tumor weight change, dose: 225.0 mg/kg/injection, schedule: Q01DX001 (ip), vehicle: saline): 52 % of control
- T/C (endpoint: median tumor weight change, dose: 450.0 mg/kg/injection, schedule: Q01DX001 (ip), vehicle: saline): 85 % of control
- T/C (endpoint: median tumor weight change, dose: 900.0 mg/kg/injection, schedule: Q01DX001 (ip), vehicle: saline): 72 % of control and 78 % of control

SMILES: C1OCN2CSCC12 (configuration not stated)
- T/C [7]: 90 % of control
- T/C [8]: 71 % of control
- T/C [9]: 82 % of control
